How the values were obtained:
SYK kinase = biological target: T1, SYK kinase (Homo sapiens, UniProt P43405); test: SYK Assay (OMNIA Kinase Assay, SOX peptide fluorescence); assay type: biochemical; details: 1 mM ATP, 10 μM Omnia Peptide Substrate Tyr 7, 30° C., readings for 30 minutes; read-out: SYK Activities: IC50
T1 construct: purchased Invitrogen, Carlsbad
Procedure: In the assay OMNIA® KINASE ASSAY by Invitrogen Corporation (Carlsbad) the effect of invention of a compound on the phosphorylation is determined by measurement of fluorescence intensity of a chelation-enhanced fluorophore called SOX. Upon phosphorylation of the peptide by the kinase of interest, Mg2+ is chelated to form a bridge between the SOX moiety and the phosphate group that is transferred to the specific tyrosine on the peptide. The fluorescence intensity is directly proportional to the amount of peptide phosphorylation.
To the wells of an 384 well small volume plate (Greiner, Frickenhausen) are added (i) the compound under test in 5% DMSO/distilled water (2 μl), (ii) 16 μl of the master mix containing ATP, DTT, Kinase Reaction Buffer, Omina Peptide Substrate Tyr 7 resulting in a final concentration of 1 mM ATP, 0.2 mM DTT and 10 μM Peptide Substrate.
The Master Mix and the assay plate was incubated to reaction temperature before the measurement (30° C.). The reaction was started with addition of (iii) 2 μl 4 μg/ml SYK kinase (Invitrogen, Carlsbad). During measurement fluorescence intensity readings were collected using a TECAN M1000 at a wavelength of λex 360/λem 485 nm every 30 s for 30 minutes. The reaction velocity was plotted versus the inhibitor concentration to determine the IC50 using XLFit 5.0 (IDBS, Guildford) to fit to a sigmoidal dose response curve.

LRRK2 = LRRK2 (Homo sapiens, UniProt Q5S007); test: LRRK2-LRRK2 G2019S-Assay (LanthaScreen Eu Kinase Binding Assay); details: 5 nM LRRK2, 10 nM tracer 236, 2 nM EU-Anti-GST antibody, 1 h at RT; read-out: LRRK2 Activities: IC50
Procedure, shortened: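 Compound competition with Alexa Fluor 647 tracer 236 (10 nM) was measured after 1 h at room temperature, using 5 nM LRRK2 (wild type or mutant) bound to 2 nM Eu-anti-GST antibody. IC50 was derived from the acceptor/donor (665/615 nm) ratio using a variable-slope dose-response fit.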

LRRK2, sequence (Q5S007 970-2527 limits assumed): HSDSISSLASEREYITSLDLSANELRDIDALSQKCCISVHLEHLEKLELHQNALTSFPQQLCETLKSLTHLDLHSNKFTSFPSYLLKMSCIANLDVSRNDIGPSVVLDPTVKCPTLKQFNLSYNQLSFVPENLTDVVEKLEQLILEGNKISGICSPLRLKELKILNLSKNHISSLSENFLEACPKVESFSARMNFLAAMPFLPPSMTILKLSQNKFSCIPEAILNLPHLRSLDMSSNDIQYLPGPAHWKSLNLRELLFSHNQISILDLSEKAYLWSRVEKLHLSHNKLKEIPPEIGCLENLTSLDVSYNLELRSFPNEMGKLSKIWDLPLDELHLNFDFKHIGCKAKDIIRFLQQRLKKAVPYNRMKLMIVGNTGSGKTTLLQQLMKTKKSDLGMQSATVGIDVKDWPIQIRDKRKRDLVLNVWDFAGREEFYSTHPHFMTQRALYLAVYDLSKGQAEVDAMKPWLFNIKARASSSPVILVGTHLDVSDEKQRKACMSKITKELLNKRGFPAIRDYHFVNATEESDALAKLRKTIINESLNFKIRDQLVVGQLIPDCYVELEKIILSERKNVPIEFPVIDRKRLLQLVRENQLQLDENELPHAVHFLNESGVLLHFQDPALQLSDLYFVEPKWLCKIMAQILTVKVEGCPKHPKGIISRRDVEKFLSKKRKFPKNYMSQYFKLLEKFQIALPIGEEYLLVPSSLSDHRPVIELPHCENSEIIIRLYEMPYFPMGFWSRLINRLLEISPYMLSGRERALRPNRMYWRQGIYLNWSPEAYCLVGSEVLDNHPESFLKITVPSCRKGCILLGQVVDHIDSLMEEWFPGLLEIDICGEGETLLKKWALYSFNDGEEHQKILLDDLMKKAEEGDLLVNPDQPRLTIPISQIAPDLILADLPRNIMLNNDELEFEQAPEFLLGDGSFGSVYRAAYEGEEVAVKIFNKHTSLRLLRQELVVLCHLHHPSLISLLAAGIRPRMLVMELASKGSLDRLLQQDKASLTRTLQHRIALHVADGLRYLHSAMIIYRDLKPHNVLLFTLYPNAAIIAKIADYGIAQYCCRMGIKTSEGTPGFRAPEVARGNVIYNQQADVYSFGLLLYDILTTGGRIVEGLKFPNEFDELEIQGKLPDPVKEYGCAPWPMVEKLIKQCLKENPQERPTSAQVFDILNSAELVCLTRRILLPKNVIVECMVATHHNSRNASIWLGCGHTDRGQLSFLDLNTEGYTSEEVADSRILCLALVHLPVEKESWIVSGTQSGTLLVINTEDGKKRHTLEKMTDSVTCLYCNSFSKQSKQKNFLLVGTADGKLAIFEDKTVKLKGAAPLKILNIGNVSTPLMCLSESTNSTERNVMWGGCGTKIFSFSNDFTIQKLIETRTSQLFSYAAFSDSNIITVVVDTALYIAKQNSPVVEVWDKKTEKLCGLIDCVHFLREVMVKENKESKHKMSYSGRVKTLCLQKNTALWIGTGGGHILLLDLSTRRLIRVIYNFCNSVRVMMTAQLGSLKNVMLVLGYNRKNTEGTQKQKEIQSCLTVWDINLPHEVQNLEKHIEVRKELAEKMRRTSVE

SMILES | IC50 (SYK kinase) | IC50 (LRRK2)
COc1cccc2nc(Nc3cnn(CC(C)C)c3)c3[nH]ncc3c12 [Example 198, N-(1-isobutyl-1H-pyrazol-4-yl)-9-methoxy-3H-pyrazolo[3,4-c]quinolin-4-amine] | 100 to 1000 nM | < 10 nM
COc1cccc2nc(Nc3cnn(CC(=O)N(C)C)c3)c3[nH]ncc3c12 [Example 339, 2-(4-((9-methoxy-3H-pyrazolo[3,4-c]quinolin-4-yl)amino)-1H-pyrazol-1-yl)-N,N-dimethylacetamide] | 100 to 1000 nM | 10 to 100 nM
COc1cccc2nc(Nc3cnn(C4CC4)c3)c3[nH]ncc3c12 [Example 201, N-(1-cyclopropyl-1H-pyrazol-4-yl)-9-methoxy-3H-pyrazolo[3,4-c]quinolin-4-amine] | 100 to 1000 nM | < 10 nM
COCC(COC)n1cc(Nc2nc3cccc(OC)c3c3cn[nH]c23)cn1 [Example 340, N-(1-(1,3-dimethoxypropan-2-yl)-1H-pyrazol-4-yl)-9-methoxy-3H-pyrazolo[3,4-c]quinolin-4-amine] | 100 to 1000 nM | < 10 nM
CS(=O)(=O)c1ccc2nc(Nc3ccc4c(c3)NC(=O)CS4)c3n[nH]cc3c2c1 [Example 344, 6-((8-(methylsulfonyl)-2H-pyrazolo[3,4-c]quinolin-4-yl)amino)-2H-benzo[b][1,4]thiazin-3(4H)-one] | < 10 nM | 10 to 100 nM
CC(=O)Nc1cccc(Nc2nc3ccc(S(C)(=O)=O)cc3c3c[nH]nc23)c1 [Example 331, N-(3-((8-(methylsulfonyl)-2H-pyrazolo[3,4-c]quinolin-4-yl)amino)phenyl)acetamide] | 100 to 1000 nM | 10 to 100 nM
COc1cccc2nc(Nc3cnn(C=C(C)C)c3)c3[nH]ncc3c12 [Example 259, 9-methoxy-N-(1-(2-methylprop-1-en-1-yl)-1H-pyrazol-4-yl)-3H-pyrazolo[3,4-c]quinolin-4-amine] | 100 to 1000 nM | < 10 nM
CN1C(=O)COc2ccc(Nc3nc4ccc(S(C)(=O)=O)cc4c4c[nH]nc34)cc21 [Example 328, 4-methyl-6-((8-(methylsulfonyl)-2H-pyrazolo[3,4-c]quinolin-4-yl)amino)-2H-benzo[b][1,4]oxazin-3(4H)-one] | 100 to 1000 nM | 10 to 100 nM
CC(=O)Nc1cc(Nc2nc3ccc(S(C)(=O)=O)cc3c3c[nH]nc23)ccc1N1CCN(C(C)=O)CC1 [Example 352, N-(2-(4-acetylpiperazin-1-yl)-5-((8-(methylsulfonyl)-2H-pyrazolo[3,4-c]quinolin-4-yl)amino)phenyl)acetamide] | 10 to 100 nM | 10 to 100 nM
CSc1ccc2nc(Nc3ccc4c(c3)CN(C)C4)c3[nH]ncc3c2c1 [Example 49, N-(2-methylisoindolin-5-yl)-8-(methylthio)-3H-pyrazolo[3,4-c]quinolin-4-amine] | 100 to 1000 nM | 10 to 100 nM
COc1ccc2nc(Nc3cnn(C)c3)c3n[nH]cc3c2c1 [Example 83, 8-methoxy-N-(1-methyl-1H-pyrazol-4-yl)-2H-pyrazolo[3,4-c]quinolin-4-amine] | 100 to 1000 nM | 10 to 100 nM
COc1cc(OC)c2nc(Nc3cnn(C4CCN(C(C)(C)C)CC4)c3)c3[nH]ncc3c2c1 [Example 295, N-(1-(1-(tert-butyl)piperidin-4-yl)-1H-pyrazol-4-yl)-6,8-dimethoxy-3H-pyrazolo[3,4-c]quinolin-4-amine] | 10 to 100 nM | 
COc1ccc2nc(Nc3cnn(CCF)c3)c3[nH]ncc3c2c1 [Example 291, N-(1-(2-fluoroethyl)-1H-pyrazol-4-yl)-8-methoxy-3H-pyrazolo[3,4-c]quinolin-4-amine] | 100 to 1000 nM | 
COc1cccc2nc(Nc3cnn(C4CCN(C(C)=O)CC4)c3)c3[nH]ncc3c12 [Example 117, 1-(4-(4-((9-methoxy-3H-pyrazolo[3,4-c]quinolin-4-yl)amino)-1H-pyrazol-1-yl)piperidin-1-yl)ethan-1-one] | 100 to 1000 nM | 
Brc1cccc2c1nc(Nc1cnn(C3CCOCC3)c1)c1[nH]ncc12 [Example 355, 6-bromo-N-(1-(tetrahydro-2H-pyran-4-yl)-1H-pyrazol-4-yl)-3H-pyrazolo[3,4-c]quinolin-4-amine] | 10 to 100 nM | 

Now from value to molecule:

IC50 (SYK kinase) | IC50 (LRRK2) | SMILES
< 10 nM | 10 to 100 nM | CS(=O)(=O)c1ccc2nc(Nc3cnn(C4COC4)c3)c3[nH]ncc3c2c1 [Example 173, 8-(methylsulfonyl)-N-(1-(oxetan-3-yl)-1H-pyrazol-4-yl)-3H-pyrazolo[3,4-c]quinolin-4-amine]
100 to 1000 nM | 10 to 100 nM | CS(=O)(=O)c1ccc2nc(Nc3ccc(C(=O)N4CCOCC4)c(F)c3)c3[nH]ncc3c2c1 [Example 175, (2-fluoro-4-((8-(methylsulfonyl)-3H-pyrazolo[3,4-c]quinolin-4-yl)amino)phenyl)(morpholino)methanone]
100 to 1000 nM | < 10 nM | CC(C)n1ncc(Nc2nc3ccc(S(C)(=O)=O)cc3c3cn[nH]c23)c1C#N [Example 247, 1-isopropyl-4-((8-(methylsulfonyl)-3H-pyrazolo[3,4-c]quinolin-4-yl)amino)-1H-pyrazole-5-carbonitrile]
10 to 100 nM | 10 to 100 nM | CS(=O)(=O)c1ccc2nc(Nc3ccc(C(N)=O)cc3)c3[nH]ncc3c2c1 [Example 66, 4-((8-(methylsulfonyl)-3H-pyrazolo[3,4-c]quinolin-4-yl)amino)benzamide]
10 to 100 nM | < 10 nM | COc1ccc2nc(Nc3cnn(C(C)(C)C#N)c3)c3[nH]ncc3c2c1 [Example 301, 2-(4-((8-methoxy-3H-pyrazolo[3,4-c]quinolin-4-yl)amino)-1H-pyrazol-1-yl)-2-methylpropanenitrile]
10 to 100 nM | 10 to 100 nM | CS(=O)(=O)c1ccc2nc(Nc3ccc(C(=O)N4CCOCC4)cc3)c3[nH]ncc3c2c1 [Example 64, (4-((8-(methylsulfonyl)-3H-pyrazolo[3,4-c]quinolin-4-yl)amino)phenyl)(morpholino)methanone]
10 to 100 nM | < 10 nM | CC(C)C(C)n1cc(Nc2nc3ccc(S(C)(=O)=O)cc3c3c[nH]nc23)cn1 (stereo not shown) [Example 324, N-(1-(3-methylbutan-2-yl)-1H-pyrazol-4-yl)-8-(methylsulfonyl)-2H-pyrazolo[3,4-c]quinolin-4-amine]
< 10 nM | < 10 nM | CS(=O)(=O)c1ccc2nc(Nc3cnn(C4CC4)c3)c3[nH]ncc3c2c1 [Example 203, N-(1-cyclopropyl-1H-pyrazol-4-yl)-8-(methylsulfonyl)-3H-pyrazolo[3,4-c]quinolin-4-amine]
100 to 1000 nM | 10 to 100 nM | CS(=O)(=O)c1ccc2nc(Nc3ccc(N4CCOC4=O)cc3)c3[nH]ncc3c2c1 [Example 76, 3-(4-((8-(methylsulfonyl)-3H-pyrazolo[3,4-c]quinolin-4-yl)amino)phenyl)oxazolidin-2-one]
100 to 1000 nM | 10 to 100 nM | CS(=O)(=O)c1cccc(Nc2nc3ccc(S(C)(=O)=O)cc3c3cn[nH]c23)c1 [Example 78, 8-(methylsulfonyl)-N-(3-(methylsulfonyl)phenyl)-3H-pyrazolo[3,4-c]quinolin-4-amine]
100 to 1000 nM | 10 to 100 nM | CN1CCN(c2ccc(Nc3nc4ccc(S(C)(=O)=O)cc4c4cn[nH]c34)cn2)CC1 [Example 81, N-(6-(4-methylpiperazin-1-yl)pyridin-3-yl)-8-(methylsulfonyl)-3H-pyrazolo[3,4-c]quinolin-4-amine]
10 to 100 nM | < 10 nM | COCCCn1cc(Nc2nc3ccc(S(C)(=O)=O)cc3c3cn[nH]c23)cn1 [Example 178, N-(1-(3-methoxypropyl)-1H-pyrazol-4-yl)-8-(methylsulfonyl)-3H-pyrazolo[3,4-c]quinolin-4-amine]
10 to 100 nM | < 10 nM | CC(C)(O)Cn1cc(Nc2nc3ccc(S(C)(=O)=O)cc3c3cn[nH]c23)cn1 [Example 262, 2-methyl-1-(4-((8-(methylsulfonyl)-3H-pyrazolo[3,4-c]quinolin-4-yl)amino)-1H-pyrazol-1-yl)propan-2-ol]
< 10 nM |  | CN1CCC(n2cc(Nc3nc4ccc(S(C)(=O)=O)cc4c4cn[nH]c34)cn2)CC1 [Example 114, N-(1-(1-methylpiperidin-4-yl)-1H-pyrazol-4-yl)-8-(methylsulfonyl)-3H-pyrazolo[3,4-c]quinolin-4-amine]
100 to 1000 nM |  | Cc1c(Nc2nc3ccc(S(C)(=O)=O)cc3c3cn[nH]c23)cnn1C(C)C [Example 218, N-(1-isopropyl-5-methyl-1H-pyrazol-4-yl)-8-(methylsulfonyl)-3H-pyrazolo[3,4-c]quinolin-4-amine]
10 to 100 nM |  | COCCn1cc(Nc2nc3ccc(S(C)(=O)=O)cc3c3cn[nH]c23)cn1 [Example 153, N-(1-(2-methoxyethyl)-H-pyrazol-4-yl)-8-(methylsulfonyl)-3H-pyrazolo[3,4-c]quinolin-4-amine]
